Consider one compound from patent publication US5882851A, “Cytochrome P-450 monooxygenases” (Novartis Finance Corporation, priority 1993, dated 1999).

Assay [1] deals with T1, P-450TYR expressed in E. coli (Sorghum bicolor, UniProt Q43135).
T1 construct: in which the 35 N-terminal amino acids are replaced by the nine N-terminal amino acids from bovine 17α hydroxylase; nine N-terminal amino acids from bovine 17alpha-hydroxylase (replace the 35 N-terminal residues) (N); made in house; host or cells: E. coli JM109, vector pSP19g10L
As to the kind of experiment: Substrate binding spectra of P-450TYR expressed in E. coli. The source says:
Cytochrome P-450TYR in the oxidized state has a strong absorption peak at 420 nm, representing the low spin state of the iron of the heme group. The binding of a ligand to the heme group shifts the absorption maximum by changing the spin state of the iron. Binding of tyrosine at the catalytic site of cytochrome P-450TYR induces a change of the spin state of the oxidized iron from low to high spin, and thereby changes the absorption maximum from 420 nm to 390 nm producing a type I spectrum (Jefcoate, Methods in Enzymology 52:258-279, 1978). The following experimental procedure is used to obtain the substrate binding spectrum: two identical cuvettes containing a buffered solution of the isolated cytochrome P-450 are prepared. The substrate of the enzyme is added to the sample cuvette whereas the same volume of buffer is added to the other cuvette. The difference spectrum is then recorded in an SLM-Aminco DW2c spectrophotometer. The absorption difference, A390-420, is proportional to the concentration of cytochrome P-450TYR with a bound substrate at its active site. If a saturating concentration of substrate is added to the sample cuvette, the absorption difference is proportional to the concentration of the substrate specific cytochrome P-450 in the cuvettes. The saturating concentration of the substrate is determined by titrating the cytochrome P-450 sample with increasing amounts of substrate and monitoring A390-420.
A modified cytocrome P-450TYR, in which the 35 N-terminal amino acids are replaced by the nine N-terminal amino acids from bovine 17α hydroxylase is introduced into the expression vector pSP19g10L which can be obtained from Dr. Henry Barnes (La Jolla, Calif.). This plasmid contains the lac Z promoter fused with the known short leader sequence (g10L) of gene 10 from bacteriophage T7 (Olin et al, 1988). A construct containing the N-terminal amino acids from bovine 17α hydroxylase and a truncated form of the P-450TYR gene is designed using PCR mutagenesis: Oligonucleotide TYROL 1d (5'-CGGGATCCATATGGCTCTGTTATTAGCAGTTTTTCTGTCGTACCTGGCCCG-3'; SEQ ID NO 23) containing a 5' mutant cDNA sequence as well as a BamHI and NdeI restriction site is used together with oligonucleotide TYROL 3 comprising the sequence surrounding the unique BamHI restriction site downstream of the ATG start codon of the cDNA coding for P-450TYR to amplify a modified N-terminal sequence of P-450TYR. The amplification product is cut with NdeI and BamHI restriction enzymes. To introduce a HindIII site immediately downstream of the stop codon of the P-450TYR gene, oligonucleotides TYROL 2 and TYROL 4 are used in a polymerase chain reaction to obtain a C-terminal fragment of the P-450TYR gene comprising a HindIII restriction site immediately downstream of the stop codon. The amplification product is cut with PstI and HindIII restriction enzymes. The complete expression plasmid is constructed by simultaneous ligation of the N-terminal NdeI/BamHI fragment, the BamHI/PstI fragment of the P-450TYR gene and the C-terminal PstI/HindIII fragment into NdeI/HindIII cleaved pSP19g10L vector DNA. The expression vector obtained is transformed into E. coli strain JM109. Transformed E. coli produce 300 nmol to 500 nmol cytochrome P-450TYR per liter cell culture upon growth at 28° C. in the presence of 1 mM isopropyl-β-D-thiogalactopyranoside and at 125 rpm. Expression levels as high as 900 nmol per liter, equivalent to 55 mg P-450TYR per liter, have been obtained. […]

For another assay, the target named is T2, cytochrome P-450TYR (Sorghum bicolor, UniProt Q43135).
T2 construct: from tissue; host or cells: microsomes of etiolated Sorghum bicolor seedlings, solubilised and purified by dye columns
As to the kind of experiment: Reconstitution of cytochrome P-450TYR activity in DLPC micelles. The class given is biochemical. The text has this:
Reconstitution of the enzyme activity of a microsomal P-450 enzyme is accomplished by insertion of the cytochrome P-450 enzyme and the corresponding NADPH-cytochrome P-450 oxidoreductase into appropriate lipid micelles made from different commercially available lipids. Isolation of NADPH-cytochrome P-450 oxidoreductase is done according to Halkier and Moller, Plant Physiol. 96:10-17, 1990. A mixture of lipids can be used but with cytochrome P-450TYR di-lauroyl-phosphatidyl choline (DLPC) provides the best enzymatic activity. One rate limiting factor of this rate limiting reaction is the number of correctly formed complexes of cytochrome P-450TYR and NADPH-cytochrome P-450 oxidoreductase. Excess amounts of the oxidoreductase and concentrated enzyme solutions ensure a sufficient number of active complexes.
A reconstituted enzyme is obtained using the following components:
Cytochrome P-450TYR : 100 μg/ml in 50 mM potassium phosphate buffer pH 7,9
Oxidoreductase, purified from Sorghum bicolor: 100 μg/ml in 50 mM potassium phosphate buffer pH 7,9
Lipid: 10 mg/ml di-lauroyl-phosphatidyl choline, sonicated in 50 mM potassium phosphate buffer pH 7,9
^14 C-tyrosine: commercially available from Amersham; [U-^14 C]-L-tyrosine 0.5 μCi
10 μl of the lipid suspension is mixed in a glass vial with 50 μl of the cytochrome P-450TYR (0-1.5 pmol) solution. 50 μl of the oxidoreductase (0-0.15 U) solution is added and then 10 μl tyrosine solution and 10 μl NADPH solution are added and the mixture is sonicated in a Branson 5200 sonication bath for one minute. The reaction mixture is subsequently incubated for 1 hour at 30° C. At the end of the incubation period the reaction is stopped by transferring the glass vials onto ice. Radioactively labelled intermediates formed are extracted into 50 μl ehtyl acetate, applied to a silica coated TLC plate and developed using an ethyl acetate/toluene (1:5 v/v) mixture as mobile phase. The resultant product, p-hydroxyphenylacetaldehyde oxime is visualized by autoradiography of the TLC plate. Alternatively, the intermediates are analyzed by reverse-phase HPLC coupled to a Berthold radioactiviy monitor. The HPLC separation was carried out using a nucleosil 100-10C18 column isocratically eluted with 1,5% 2-propanol in 25 mM Hepes pH 7,9 (Halkier et al, J. Biol. Chem. 264:19487-19494, 1989). Control samples may be made by omitting either cytochrome P-450 oxidoreductase or NADPH.

T2 sequence (Q43135 2-558): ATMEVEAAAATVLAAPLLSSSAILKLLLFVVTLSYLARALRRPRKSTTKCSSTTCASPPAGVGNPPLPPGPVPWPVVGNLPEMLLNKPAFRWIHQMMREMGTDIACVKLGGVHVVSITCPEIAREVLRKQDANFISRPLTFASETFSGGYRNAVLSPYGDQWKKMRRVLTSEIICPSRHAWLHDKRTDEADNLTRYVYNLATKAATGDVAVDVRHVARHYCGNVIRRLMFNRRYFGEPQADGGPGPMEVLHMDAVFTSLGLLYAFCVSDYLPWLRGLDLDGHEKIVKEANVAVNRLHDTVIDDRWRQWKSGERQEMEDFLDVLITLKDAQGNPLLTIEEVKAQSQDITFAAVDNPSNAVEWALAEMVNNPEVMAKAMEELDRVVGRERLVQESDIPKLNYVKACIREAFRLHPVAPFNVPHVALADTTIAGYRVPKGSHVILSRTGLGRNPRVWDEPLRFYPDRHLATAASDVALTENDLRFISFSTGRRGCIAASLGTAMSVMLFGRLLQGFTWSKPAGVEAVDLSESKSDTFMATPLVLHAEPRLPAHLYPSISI
T1 sequence (Q43135 other isoform, or with tags, fused parts or gaps): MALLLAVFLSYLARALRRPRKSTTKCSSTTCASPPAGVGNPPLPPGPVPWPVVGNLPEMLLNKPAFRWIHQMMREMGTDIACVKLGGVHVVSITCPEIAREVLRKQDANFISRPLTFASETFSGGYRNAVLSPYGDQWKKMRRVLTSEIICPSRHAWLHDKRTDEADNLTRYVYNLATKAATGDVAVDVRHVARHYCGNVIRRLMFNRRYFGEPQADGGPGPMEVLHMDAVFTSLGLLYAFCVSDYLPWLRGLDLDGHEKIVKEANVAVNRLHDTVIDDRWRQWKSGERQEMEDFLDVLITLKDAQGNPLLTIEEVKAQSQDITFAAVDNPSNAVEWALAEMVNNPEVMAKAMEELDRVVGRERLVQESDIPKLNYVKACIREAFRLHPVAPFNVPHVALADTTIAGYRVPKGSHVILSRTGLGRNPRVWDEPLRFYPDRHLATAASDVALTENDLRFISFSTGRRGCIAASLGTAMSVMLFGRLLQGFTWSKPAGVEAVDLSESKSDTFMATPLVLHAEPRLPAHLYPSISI

As for `N[C@@H](Cc1ccc(O)cc1)C(=O)O` [tyrosine, L-tyrosine], in assay [1], the “molar extinction coefficient E420-390” value turned out to be 75.8 cm⁻¹ mM⁻¹. Also, the figures for the turn-over number on cytochrome P-450TYR (in the absence of added salt) and on cytochrome P-450TYR (in the presence of 15 mM NaCl) were 228 min⁻¹ and 198 min⁻¹, respectively.
